Measurements: US5037837A, “Phenoxypropylamine derivatives or salts thereof and antiulcer agents containing the same” (Terumo Kabushiki Kaisha, priority 1989, dated 1991)

Experiments:
histamine H2 receptors = target: T1, histamine H2 receptors (Cavia porcellus, UniProt P47747); experiment: Antagonistic action against histamine H2 receptors (isolated right atrium); design: species or system Hartley male guinea pigs; conditions: guinea pig isolated right atrium, 30° C.; concentration for two-fold shift of the histamine dose-response curve; read-out: Antagonistic action against histamine H2 receptors, pA2 (converted)
T1 construct: Excised right atrium of Hartley male guinea pigs; from tissue; host or cells: isolated right atrium of male Hartley guinea pigs
Description: Excised right atrium of Hartley male guinea pigs (weighing 450-550 g) was used. Thus, the guinea pig was fainted by strongly hitting the occipital region, and then the chest opened to isolate the heart. The isolated heart was immersed in a Krebs-Henseleit nutrient solution at 30° C. which had sufficiently been aerated with 95% O2 +5% CO2. The right atrium with the right cardiac auricle attached thereto was separated carefully enough to avoid damages. Blood vessels and tissues attached around the separated organ were removed. Both ends of the separated right cardiac auricle were held with threaded Serfin, and the thread at one end was fixed in a tissue tank filled with the nutrient solution, and the thread at the other end connected to a tension measuring and recording instrument and loaded with 1-g weight. The nutrient solution in the tissue tank was maintained at a temperature of 30° C. and consistently aerated with a 95% O2 +5% CO2 gas. The nutrient solution was exchanged every 5-10 min.
After spontaneous contractions of the isolated right atrium specimen were stabilized, and the heart rate became constant, histamine was cumulatively introduced into the tissue tank. Thus, histamine was introduced cumulatively starting at 10^-7 M and gradually at 3×10^-7 M, 10^-6 M, […], and so on. When the heart rate became constant at a given concentration, the concentration was further increased, and the cumulative introduction of histamine was continued until the heart rate no more increased. There was then determined a histamine dose-response curve.
Antagonistic action of the phenol derivatives of the invention against histamine H2 receptors was tested using the isolated right atrium specimen previously employed for determining a histamine dose-response curve. Thus, said specimen with the increased heart rate by the cumulative introduction of histamine was repeatedly washed with a nutrient solution to remove the histamine. When the heart rate was decreased by the histamine removal to a constant level, a phenol derivative of the invention was introduced into the tissue tank. After the introduction of said phenol derivative, histamine was cumulatively introduced sufficiently to determine a histamine dose-response curve in the presence of said phenol derivative. Antagonistic action of the phenol derivatives of the invention is determined by measuring the distance (mm) at 50% reaction between the dose-response curve in the absence of said phenol derivative and one in the presence of said phenol derivative and calculating pA2 on the basis of the distance from the Van Rossum simplified table.
Note that the pA2 in the table means a -log value of the concentration of a phenol derivative of the invention necessary for parallel displacement of the histamine dose-response curve to the side of a twice increase in concentration.

[1] = system: ethanol hydrochloric acid ulcer; experiment: Inhibitory activity against ethanol hydrochloric acid ulcer; assay type: in vivo; conditions: SD male rats, 30 mg/kg orally, 1 hour before 150 mM HCl in 60% ethanol
Description: To SD male rats (weighing 150-250 g) fasted for 24 hours was administered orally a phenol derivative of the invention at a dose of 30 mg/kg bodyweight. One hour later, a hydrochloric acid solution in ethanol (containing 150 mM hydrochloric acid in 60% ethanol) was orally given in a volume of 0.5 ml/100 g bodyweight.
One hour later, the animals were sacrificed with ether. The stomach was excised and, after formalin treatment, measured for the length (mm) of lesions developed in glandular portions of the stomach. Total length of the lesions per animal was taken as ulcer index.
Percent inhibition of ulceration as referred to in the table is a value obtained by reducing from 1 the ulcer index for the rat with a phenol derivative of the invention orally given divided by the ulcer index for the orally nonadministered rat and multiplying the value by 100. The calculation is conducted by the formula shown below. [formula]

5-lipoxygenase = target: T2, 5-lipoxygenase (Rattus norvegicus, UniProt P12527); experiment: 5-Lipoxygenase-inhibiting activity; assay type: biochemical; conditions: RBL-1 cell supernatant; arachidonic acid 50 μg; 37° C., 15 min; 5-HETE by HPLC; read-out: 5-Lipoxygenase inhibiting activity, 50% Inhibition conc.
T2 construct: The supernatant is employed as an enzyme solution of a 5-lipoxygenase; endogenous in cells; host or cells: RBL-1 rat basophilic leukemia cells (supernatant of sonicated cells)
T2 sequence (P12527 1-673): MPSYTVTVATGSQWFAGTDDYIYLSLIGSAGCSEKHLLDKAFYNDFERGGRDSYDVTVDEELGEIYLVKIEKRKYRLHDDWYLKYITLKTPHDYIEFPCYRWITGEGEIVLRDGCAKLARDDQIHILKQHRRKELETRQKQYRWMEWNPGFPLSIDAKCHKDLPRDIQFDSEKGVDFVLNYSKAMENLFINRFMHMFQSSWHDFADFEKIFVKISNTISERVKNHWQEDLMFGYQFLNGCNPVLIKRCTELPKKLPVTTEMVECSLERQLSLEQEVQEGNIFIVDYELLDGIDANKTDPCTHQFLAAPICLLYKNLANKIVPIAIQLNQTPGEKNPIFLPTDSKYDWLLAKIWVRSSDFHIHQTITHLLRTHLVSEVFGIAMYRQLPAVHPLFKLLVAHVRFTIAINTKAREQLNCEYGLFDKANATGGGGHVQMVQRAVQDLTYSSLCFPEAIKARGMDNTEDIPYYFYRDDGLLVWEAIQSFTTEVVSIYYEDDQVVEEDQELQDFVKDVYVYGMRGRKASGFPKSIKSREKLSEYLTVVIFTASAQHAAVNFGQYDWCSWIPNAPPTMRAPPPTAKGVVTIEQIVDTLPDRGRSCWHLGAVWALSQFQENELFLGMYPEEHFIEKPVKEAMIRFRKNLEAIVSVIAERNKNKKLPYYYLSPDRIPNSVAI
Description: A suspension of rat-origin basophilic leukemia cell strain RBL-1 in an Eagle basal medium (manufactured by Gibco Laboratories) containing 10% FCS is cultivated in a 5% CO2 incubator at 37° C. The culture is then centrifuged at 4° C. to collect cells. The cells are re-suspended in a phosphate buffer solution at pH 7.4 to a cell density of 1.0×10^7 -3.0×10^7 cells/ml. The suspended cells are treated by an ultrasonic cell blender and then centrifuged at 15,000 rpm at 4° C. for 30 min. The supernatant is employed as an enzyme solution of a 5-lipoxygenase. In test tubes are placed 50 μg of arachidonic acid and a phenol derivative of the invention to be tested. To each of the test tubes are added 0.30 ml of phosphate buffer, 0.20 ml of the enzyme solution as prepared above and 5 μl of a 100 mM CaCl2 (calcium chloride) solution. The mixture is allowed to react at 37° C. for 15 min. To the reaction mixture, after ice-cooling, is added one drop of 1N HCl (hydrochloric acid), and the resulting mass is extracted with 2 ml of ethyl acetate. The extract is concentrated to dryness followed by the addition of 100 μl of methanol for use as a test specimen.
Said specimen is injected into octadecylsilane (ODS) reverse phase high performance liquid chromatography (HPLC), eluted with methanol - acetonitrile - water - acetic acid (15:45:35:0.01). Peak for 5-HETE (5-(s)-hydroxy-6,8,11,14-eicosatetraenoic acid), a 5-lipoxygenase product detected in approximately 25 min. is measured. The 5-lipoxygenase-inhibiting activity is determined by decrease in the peak for said 5-lipoxygenase product.
50% inhibitory concentration as referred to in the table means concentration of a phenol derivative required for controlling the production of […] as described above to 50% by introducing said phenol derivative when production of 5-HETE without phenol derivative of the invention is taken as 100%.

T1 sequence (P47747 whole entry): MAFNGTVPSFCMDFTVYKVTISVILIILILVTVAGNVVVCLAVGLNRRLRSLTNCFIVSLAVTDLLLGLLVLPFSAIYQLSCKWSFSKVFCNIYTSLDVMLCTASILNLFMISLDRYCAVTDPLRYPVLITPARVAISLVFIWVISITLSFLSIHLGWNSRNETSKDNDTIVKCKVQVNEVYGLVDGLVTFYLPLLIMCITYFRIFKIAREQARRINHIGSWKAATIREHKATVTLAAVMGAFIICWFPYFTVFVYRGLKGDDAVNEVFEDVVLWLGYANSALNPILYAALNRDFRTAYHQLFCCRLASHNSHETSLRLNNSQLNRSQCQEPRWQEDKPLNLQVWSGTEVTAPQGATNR

SMILES | Kb (histamine H2 receptors) [µM] | Inhibitory activity against ethanol hydrochloric acid ulcer, Percent inhibition of ulceration [1] [%] | IC50 (5-lipoxygenase) [µM]
COc1cc(CCCCC(=O)NCCCOc2cccc(CN3CCCCC3)c2)cc(OC)c1O [Example 4, N-[3-(3-(1-piperidinylmethyl)phenoxy)propyl]-5-(4-hydroxy-3,5-dimethoxyphenyl)pentylamide] | 0.49 | 62.5 | 13
COc1cc(CCCC(=O)NCCCOc2cccc(CN3CCCCC3)c2)ccc1O [Example 6, N-[3-(3-(1-piperidinylmethyl)phenoxy)propyl]-4-(4-hydroxy-3-methoxyphenyl)butylamide] | 0.0501 | 76.5 | 8.9
CC(C)(C)c1cc(CCCCC(=O)NCCCOc2cccc(CN3CCCCC3)c2)cc(C(C)(C)C)c1O [Example 3, N-[3-(3-(1-piperidinylmethyl)phenoxy)propyl]-5-(3,5-di-tert-butyl-4-hydroxyphenyl)pentylamide] | 2.57 | 42.9 | 20
COc1cc(CCCCC(=O)NCCCOc2cccc(CN3CCCCC3)c2)ccc1O [Example 1, N-[3-(3(1-piperidinylmethyl)phenoxy)propyl]-5-(4-hydroxy-3methoxyphenyl)pentylamide] | 0.0575 | 89.5 | 6.1
O=C(CCCCc1ccc(O)cc1)NCCCOc1cccc(CN2CCCCC2)c1 [Example 2, N-[3-(3-(1piperidinylmethyl)phenoxy)propyl]-5-(4-hydroxyphenyl)-pentylamide] | 0.316 | 33.4 | 120
COc1cc(CCC(=O)NCCCOc2cccc(CN3CCCCC3)c2)ccc1O [Example 5, N-[3-(3-(1-piperidinylmethyl)phenoxy)propyl]-3-(4-hydroxy-3-methoxyphenyl)propylamide] | 0.631 | 48.0 | 32
O=C(CCCCc1ccc(O)c(O)c1)NCCCOc1cccc(CN2CCCCC2)c1 [Example 7, N-[3-(3-(1piperidinylmethyl)phenoxy)propyl]-5-(3,4dihydroxyphenyl)pentylamide] | 0.141 | 83.7 | 5.9
